Patent US20260022098A1, “BULLEYACONITINE A DERIVATIVE WITH ANALGESIC ACTIVITY, AND PREPARATION METHOD AND APPLICATION THEREOF” (priority 2023, published 2026)
Read-outs that look alike come from different tables or passages of the source.

Columns and labels:
[1] = test system: LPS-induced RAW 264.7 cells; assay: Griess assay, inhibition of NO release in LPS-induced RAW 264.7 cells; assay type: cell-based; settings: Griess method, compound at 30 M (so in the source), 22 h
Experimental: (§1) The effect of the compound to be tested on viability of RAW 264.7 cells at a concentration of […] was assessed through MTT assay (Methylthiazolyldiphenyl-tetrazolium bromide assay), and the inhibition on NO release in the inflammatory response of LPS-induced RAW 264.7 cells at 30 µM was determined through Griess method. Specific methods were described as follows.
RAW264.7 cells beyond third passage were added to a culture medium and gently pipetted to detach, forming a cell suspension. 10 μL of the cell suspension was applied onto a hemocytometer slide for counting, and cells were seeded into a 96-well plate at a density of 3×10^4 cells per well with 100 μL of the cell suspension per well. After incubated at 37° C. with […] for 24 h, supernatant was removed. The blank group received 100 μL of DMSO (1/1000 dilution) per well, a LPS (lipopolysaccharide) group received 100 μL of DMSO (1/1000 dilution) per well, and the experimental groups received 100 μL of the test samples per well. The LPS group received 1 μg/ml of LPS by […] per well, and the experimental groups received […] of LPS by 3 μg per well. After 22 h, 50 μL of supernatant was transferred into another 96-well plate, added with Griess Reagent I in a NO assay kit by 50 μL per well, then added with Griess Reagent II by 50 μL per well, and subjected to an absorbance test at 562 nm. Nitric oxide (NO) concentration was calculated based on a standard curve, which was specifically as follows: NO inhibition rate (%)=(ODLPS−ODTest)/(ODLPS−ODBlank)×100).

RAW 264.7 cells = assay: MTT assay, viability of RAW 264.7 cells; assay type: cell-based; settings: compound diluted to 30 mol/L (so in the source), 12 h
Experimental: as §1
An MTT solution (5 mg/mL) was prepared with a PBS buffer, filter-sterilized through a 0.22 μm filter membrane, and stored protected from light at low temperature. Each compound was dissolved in DMSO to prepare a 50 mmol/L stock solution, and stored from light at low (frozen) temperature. The stock solution was diluted to 30 mol/L with DMEM (Dulbecco's modified Eagle's medium) containing 10% FBS (fetal bovine serum). RAW264.7 cells beyond third passage were added to a culture medium and gently pipetted to detach, forming a cell suspension. 10 μL of the cell suspension was applied onto a hemocytometer slide for counting, and cells were seeded into 96-well plates at a density of 6×10^3 cells per well with 100 μL of the cell suspension per well. After incubated at 37° C. with 5% CO2 for 24 h, supernatant was removed. A zero-adjustment group (CO group) received 100 μL of medium per well, the blank group (CK group) received 100 μL of DMSO (1/1000 dilution) per well, and the experimental groups received 100 μL of the test samples per well. After 12 h, supernatant was removed, and […] of MTT solution was added into each well at 120 μL per well. After incubated in COz at a constant temperature for 4 h, supernatant was removed, and DMSO was added into each well by 150 μL per well. The mixture was shaken at 50 r/min for 10 min and subjected to an absorbance test at 492 nm. Relative cell viability (x) was calculated through a formula as follows: relative cell viability (%)=(ODTest−ODCO)/(ODCK−ODCO)×100%.

Kunming mice [2] = assay: Analgesic activity by acetic acid-induced writhing method (writhing inhibition rate, ED50); assay type: in vivo; settings: mice, subcutaneous; for ED50: Probit regression; for inhibition in vivo at 0.05 mg/kg / inhibition in vivo at 0.5 mg/kg: read-out: Analgesia rate (%) ± SEM
In short: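 Kunming mice (22±2 g, 1:1 sex, 12 h fasted, 10/group) got compound s.c. (dissolved 1:1 molar with 0.1 mol/L HCl, diluted in saline); 0.7% acetic acid i.p. 15 min later, writhes counted over 15 min. Inhibition rate vs saline blank; ED50 by Probit regression over ≥5 doses.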

Kunming mice [3] = assay: Acute toxicity / median lethal dose (LD50) determination, subcutaneous injection; assay type: in vivo; design: key to Acute toxicity: if death occurred, (+) represented as positive; if no death occurred, (−) represented as negative; settings: for Acute toxicity: mice administered 20 mg/kg subcutaneously, presence of death within 24 h
In short: (§2)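 Kunming mice (22±2 g, 1:1 male:female, fasted 12 h), 10 per group, given compound subcutaneously at 0.1 mL/10 g in saline after 1:1 molar dissolution in 0.1 mol/L HCl. At least 5 proportional dose groups set from a 20 mg/kg pilot; 24 h survival, LD50 by Probit regression.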

[4] = as above; assay type: in vivo, mice; design: key to Acute toxicity: if death occurred, (+) represented as positive; if no death occurred, (−) represented as negative; settings: both sexes, Kunming, mouse, in vivo, sc; mice, subcutaneous, survival within 24 h, Probit regression; >X = no death or toxic symptoms at X mg/kg
In short: as §2

Kunming mice [5] = assay: Calculation of therapeutic index (TI = LD50/ED50); assay type: in vivo
Experimental: (3) Calculation of Therapeutic Index (TI)
The therapeutic index of each compound was calculated based on the median effective dose and the median lethal dose, which were specifically as follows: therapeutic index (TI)=median lethal dose (LD50)/median effective dose (ED50).

Kunming mice [6] = settings: reported value used as preliminary screening concentration; cited from earlier work
[7] = Mus musculus, sc, acetic acid-induced writhing, read-out: ED50
[8] = Mus musculus, sc, dosing concentration 0.05 mg/kg, acetic acid-induced writhing
[9] = Mus musculus, sc, dosing concentration 0.5 mg/kg, acetic acid-induced writhing

| Compound | Inflammatory NO inhibition rate [1] [%] | RAW cell viability (RAW 264.7 cells) | ED50 (Kunming mice [2]; [7]) [mg/kg] | inhibition in vivo at 0.05 mg/kg (Kunming mice [2]; [8]) [%] | Acute toxicity (Kunming mice [3]) | LD50 [4] [mg/kg] | TI (Kunming mice [5]) | inhibition in vivo at 0.5 mg/kg (Kunming mice [2]; [9]) [%] | reported median effective dose (ED50) (Kunming mice [6]) [mg/kg] | ED50 (Kunming mice [2]; acetic acid-induced writhing) [mg/kg] | Analgesia rate (%) ± SEM (Kunming mice [2]; dosing concentration 0.05 mg/kg, acetic acid-induced writhing) [%] | Analgesia rate: unable to test owing to significant toxicity or death in mice (Kunming mice [2]; dosing concentration 0.5 mg/kg) | LD50 (Kunming mice [3]; mice, subcutaneous, survival within 24 h, Probit regression, >X = no death or toxic symptoms at X mg/kg) [mg/kg] |
| --- | --- | --- | --- | --- | --- | --- | --- | --- | --- | --- | --- | --- | --- |
| CCO[C@]12C[C@H](OC)[C@@]3(OC(=O)c4cccnc4)CC(C1[C@H]3OC(=O)c1cccnc1)[C@]13C4[C@@H](OC)C2[C@H]1N(CC)C[C@]4(COC)CC[C@@H]3OC (some centres unmarked) [Compound 27] | 7 ± 2.16 | 87.20 ± 7.66 ^ % | 0.033 | 62 ± 1.6 | − | > 600 | >18181.8 |  |  |  |  |  |  |
| CCN1C[C@]2(COC)CC[C@H](OC)[C@@]34C5C[C@]6(OC(=O)c7cccnc7)[C@@H](OC)C[C@@](OC(C)=O)(C5[C@H]6OC(=O)c5ccc(OC)cc5)C([C@H](OC)C23)[C@@H]14 (some centres unmarked) [Compound 29] | 20 ± 1.12 | 116.43 ± 15.6 ^ % | 1.48 | 47.9 ± 1.8 | − | 41.2 | 27.9 | 65.6 ± 1.3 |  |  |  |  |  |
| CCO[C@]12C[C@H](OC)[C@@]3(OC(=O)c4ccc(F)cc4)CC(C1[C@H]3OC(=O)c1ccc(OC)cc1)[C@]13C4[C@@H](OC)C2[C@H]1N(CC)C[C@]4(COC)CC[C@@H]3OC (some centres unmarked) [Compound 60] | 2 ± 2.82 | 96.09 ± 7.95 ns % | 0.122 | 50 ± 1.4 | − | > 100 | >819.7 |  |  |  |  |  |  |
| CCO[C@]12C[C@H](OC)[C@@]3(OC(=O)c4ccccc4F)CC(C1[C@H]3OC(=O)c1ccccc1F)[C@]13C4[C@@H](OC)C2[C@H]1N(CC)C[C@]4(COC)CC[C@@H]3OC (some centres unmarked) [Compound 69] | 40 ± 3.46 | 95.11 ± 5.66 ns % | 0.106 | 40.3 ± 0.7 | − | > 100 | >943.4 | 60.6 ± 1.9 |  |  |  |  |  |
| CCO[C@]12C[C@H](OC)[C@@]3(OC(=O)c4ccc(Cl)cc4)CC(C1[C@H]3OC(=O)c1ccc(OC)cc1)[C@]13C4[C@@H](OC)C2[C@H]1N(CC)C[C@]4(COC)CC[C@@H]3OC (some centres unmarked) [Compound 83] | 50 ± 4.52 | 85.21 ± 7.83 ^ % | 0.146 | 47 ± 0.9 | − | 76.6 | 524.9 | 70.8 ± 1.2 |  |  |  |  |  |
| Bulleyaconitine A [reference compound] | 13 ± 6.84 | 85.80 ± 7.31 ^ % |  |  | + |  | 19.2 |  | 0.05 | 0.048 | 54.80 ± 1.8 | −^a | 0.92 |
